Where two headings read alike, the source gives them in different places.
Tests used:
BACE = BACE (Homo sapiens, UniProt P56817); test: In vitro enzymatic BACE FRET (fluorescence resonance energy transfer) assay; type: biochemical; details: BACE enzyme 0.2 nM, FRET substrate 50 nM, acetate buffer pH 4.2
Description: In Vitro Enzymatic BACE FRET (Fluorescence Resonance Energy Transfer) Assay
Assay buffer is 0.05 M acetate, pH 4.2, 10% DMSO final, 100 uM genapol (which is a nonionic detergent, below it's Critical Micelle Concentration). Enzyme (0.2 nM) is pre-incubated for one hour with inhibitors added in 1 uL of DMSO. Then the assay is started by the addition of FRET substrate (50 nM) and incubated for one hour. The FRET assay is terminated with by addition of Tris buffer, which raises the pH to neutrality, and the fluorescence is determined. The FRET substrate is a peptide with commercially available fluorophore and quencher, on opposite sides of the BACE cleavage site. Proteolytic cleavage of the FRET substrate releases quenching of fluorescence (excitation 488 nm and emission […]).

[1] = tested on: Aβ40 in conditioned medium of cells stably expressing Amyloid Precursor Protein (APP); test: BACE cell-based assay: Aβ40 in conditioned medium by sandwich ELISA
How it was run: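 APP-stable cells grown 24 h in DMEM/10% FBS, then exposed to compounds for 24 h in a 10-point dose series starting at 100 or 10 μM, 0.1% DMSO final. Medium Aβ40 measured by pAb40/biotinylated 6E10 sandwich ELISA with Europium time-resolved fluorescence; IC50 from percent inhibition.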

[2] = cells stably expressing APP, 24 h incubation with compound, Aβ40 in supernatant by sandwich ELISA, read-out: IC50 values in the cell-based assay (inhibition or reduction of Aβ40)

Sequence of BACE (P56817 46-501, species assumed): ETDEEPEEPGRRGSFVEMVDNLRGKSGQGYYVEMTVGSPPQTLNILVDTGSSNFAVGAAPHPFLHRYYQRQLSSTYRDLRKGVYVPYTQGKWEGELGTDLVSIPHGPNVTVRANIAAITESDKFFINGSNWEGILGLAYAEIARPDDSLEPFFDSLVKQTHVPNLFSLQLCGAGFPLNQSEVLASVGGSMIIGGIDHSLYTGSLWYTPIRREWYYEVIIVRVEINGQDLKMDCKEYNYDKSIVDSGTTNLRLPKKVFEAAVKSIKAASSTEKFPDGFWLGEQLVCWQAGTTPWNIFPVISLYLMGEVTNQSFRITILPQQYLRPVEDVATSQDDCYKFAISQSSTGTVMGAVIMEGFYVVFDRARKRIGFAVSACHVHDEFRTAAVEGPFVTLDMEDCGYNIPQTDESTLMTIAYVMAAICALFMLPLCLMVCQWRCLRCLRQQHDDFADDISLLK

| IC50 (BACE) | IC50 ([1]; cell based assay data, Table 4, unit inferred, read-out: Cell Assay) | IC50 ([1]; cell based assay data of Table 4, unit inferred, read-out: Cell Assay) | IC50 [1, 2] | SMILES |
| --- | --- | --- | --- | --- |
| ≤ 5 µM | 0.034 µM | – | – | C=CC[C@H](NC(C)=O)[C@H](O)CN[C@H]1CC2(CCC2)Oc2ncc(CC(C)(C)C)cc21 [Example 736, N-((1S)-1-((1R)-2-(((4′S)-6′-(2,2-dimethylpropyl)-3′,4′-dihydrospiro[cyclobutane-1,2′-pyrano[2,3-b]pyridin]-4′-yl)amino)-1-hydroxyethyl)-3-buten-1-yl)acetamide] |
| ≤ 5 µM | – | 0.0172 µM | – | CC(=O)N[C@@H](Cc1cccc(F)c1)[C@H](O)CN[C@H]1CC2(CCC2)Oc2c1cc(CC(C)(C)C)nc2OC(C)C [Example 610, N-((1S,2R)-3-(((4′S)-6′-(2,2-dimethylpropyl)-8′-((1-methylethyl)oxy)-3′,4′-dihydrospiro[cyclobutane-1,2′-pyrano[2,3-c]pyridin]-4′-yl)amino)-1-((3-fluorophenyl)methyl)-2-hydroxypropyl)acetamide] |
| ≤ 5 µM | – | – | ≤ 5 µM | CC(=O)N[C@@H](Cc1ccccc1)[C@H](O)CN[C@H]1CC2(CCC2)Oc2ccc(N3C[C@@H]4C[C@H]3CO4)cc21 [Example 388] |
| ≤ 5 µM | – | – | ≤ 5 µM | CC(=O)N[C@@H](Cc1ccccc1)[C@H](O)CN[C@H]1CC2(CCC2)Oc2ncc(CC(F)(F)F)cc21 [Example 512, N-((1S,2R)-2-hydroxy-1-(phenylmethyl)-3-(((4′S)-6′-(2,2,2-trifluoroethyl)-3′,4′-dihydrospiro[cyclobutane-1,2′-pyrano[2,3-b]pyridin]-4′-yl)amino)propyl)acetamide] |
| ≤ 5 µM | – | – | ≤ 5 µM | CC(=O)N[C@@H](Cc1ccccc1)[C@H](O)CN[C@H]1CC2(CCC2)Oc2ccc(N3CCOC[C@@H]3C)cc21 [Example 139] |

Source: patent publication US7973047B2, “Beta-Secretase modulators and methods of use” (Amgen Inc., priority 2010, dated 2011)
